The subject of test [1] is recombinant viruses (patient IN amplicons in pHXB2-ΔIN backbone) in MT4-LTR-eGFP cells. Briefly: Drug susceptibility testing of replication-competent recombinant viruses (phenotypic sensitivity, eGFP readout). It is filed as cell-based, HIV-1. The following applies: for EVG FC (elvitegravir sensitivity fold-change in IC50): vs IIIB HIV-1 wild-type reference.
The test system of test [2] is IN WT, IN Y143C and IN Y143R. It is filed as biochemical, HIV-1. The following applies: strand transfer observed in the 3′end processing assay, uncleaved substrate, three enzymes.
Setting [3] is: samples with the Y143C/H/R mutations.

On to `COc1cc2c(cc1Cc1cccc(Cl)c1F)c(=O)c(C(=O)O)cn2[C@H](CO)C(C)C` [EVG, elvitegravir], for which the “EVG FC (elvitegravir sensitivity fold-change in IC50)” value in test [1] (patient 1, D0, integrase mutations V72I I203M) is on record as 0.89; in test [1] (patient 1, M3 on RAL, V72I L74L/M T97A/T Y143C I203M) it was 1.56; in test [1] (patient 1, M9 (RAL removed after month 6), V72I I203M), 0.83; in test [1] (patient 1, M12 (RAL removed after month 6), V72I I203M) it was 1.43; in test [1] (patient 2, D0, V151I/V) it was 0.94; in test [1] (patient 2, M3 on RAL, N155N/H) it was 6.05. Also, the “EVG FC (elvitegravir sensitivity fold-change in IC50)” value in test [1] (patient 2, M6 on RAL, T97A/T G163G/R Y143Y/C/H/R) is 6.23; in test [1] (patient 2, M9 on RAL, T97A/T G163G/R Y143Y/C/H/R), 2.68; in test [1] (patient 3, D0, V72I) it was 0.60; in test [1] (patient 3, M6 on RAL, V72I T97A/T Y143C/H/R/Y) it was 3; in test [1] (patient 3, M12 on RAL, V72I T97A/T Y143C/H/R/Y), 9.57. In addition, in test [1] (setting [3]), the “median EVG FC” value turned out to be 3. Further, the “range of EVG FC” value in test [1] (setting [3]) is 1.56–9.57.
`Cc1nnc(C(=O)NC(C)(C)c2nc(C(=O)NCc3ccc(F)cc3)c(O)c(=O)n2C)o1` [RAL, raltegravir]: in test [1] (setting [3]), the “median RAL FC” value was found to be 24.83 and the “range of RAL FC” value was 5.87–51.95. For the same compound, the “concentration of drug for complete inhibition of ST” value in test [2] was found to be 0.4 µM.
